Experimental data published in patent US20170079989A1, “METHOD FOR TREATMENT OF OSTEOARTHRITIS AND OTHER JOINT RELATED INJURIES AND CONDITIONS” (priority 2010, published 2017).
Entries after “also recorded” stand apart in the source; their conditions may differ.

Tests used:
[1] = In vitro release (elution testing) of injectable formulations in sterile PBS at 37 degrees C.; assay type: physicochemical; details: drug encapsulated in SAIB nanoparticles suspended in hyaluronic acid solution, dialysis tubing, 50 rpm, UV-Vis
Description: About 21 mg of curcumin was dissolved in 2 ml of DMSO/SAIB (9:1 ratio of DMSO to SAIB in ethanol). The concentration of SAIB in the solution was about 104 mg per ml of DMSO/SAIB/Ethanol solution. This solution of curcumin/DMSO/SAIB/Ethanol was added drop wise to PBS while stirring. The nanoparticles of curcumin/SAIB formed when the DMSO/ethanol diffused out into the PBS (FIG. 3). 0.5 ml of the nanoparticle solution was then mixed with 2.5 ml of 1% Hyaluronic acid (HA) in PBS. The final mixture was then used for testing of injectability and for elution study.
Elution testing of various injectable formulations as described in example 2 was carried out in sterile PBS and at 37 degrees C. Drugs such as rapamycin, curcumin and sulfasalazine were used in the testing of various formulations. Each formulation was pipetted into a segment of dialysis tubing (Sigma Cat. D0530) with both ends of the tubing sealed. The dialysis tubing with the formulation was then placed inside a container and 15 ml of sterile PBS was added to the container. The container was then placed in an incubator shaker at 37 degrees C., 50 rpm and samples were withdrawn at regular time intervals and replaced with fresh sterile PBS. The samples were measured photometrically (UV-Vis) at a wavelength of 420 nanometers for curcumin, 359 nanometers for sulfasalazine and 278 nanometers for rapamycin.

[2] = Injectable formulation of sulfasalazine in SAIB/DMSO injected into an aqueous environment; assay type: physicochemical; details: drug/DMSO mixed 1:1 with SAIB gel (90% in ethanol)
Text: FIG. 2 is a drawing of the injectable formulation of FIG. 1 when injected into an aqueous environment. The liquid formulation of drug, DMSO and SAIB formed a liquid gel after the ethanol component in the SAIB and DMSO diffused out into the water. […] Controlled release of the drug over a long period of time can be beneficial to treat chronic inflammation in osteoarthritis. A known amount of sulfasalazine was weighed and dissolved in DMSO. This solution of sulfasalazine/DMSO was then mixed in 1:1 ratio with SAIB gel (90% by weight in ethanol). The mixture as shown in FIG. 1 can be loaded into a syringe and injected through a 20 GA needle. The mixture formed a gel that encapsulated the drug after the solvents (DMSO and ethanol) diffused out of the aqueous environment (FIG. 2).

[3] = cited from earlier work

SMILES	release kinetics of drug from the injectable formulation [1]	release of drug from the SAIB gel [2]	water solubility [3]
COc1cc(/C=C/C(=O)CC(=O)/C=C/c2ccc(O)c(OC)c2)ccc1O [curcumin, Curcumin]	released over an extended period of time; also recorded: controlled release manner		
O=C(O)c1cc(/N=N/c2ccc(S(=O)(=O)Nc3ccccn3)cc2)ccc1O [sulfasalazine, Sulfasalazine]	high at the beginning and level off quickly in a few days	slowly diffused out of the gel in a controlled release manner	slightly water soluble
